The source of these data is US10604512B2, “3-(1H-indol-2-yl)-1H-indazoles and therapeutic uses thereof” (Samumed, LLC, priority 2015, dated 2020).

What all share (type): cell-based
For one experiment, the system named is SW480 colon cancer cells. The experiment is described as follows: Cell viability assay (CellTiter-Blue) in SW480 colon cancer cells. Particulars: Homo sapiens, 96 h, four days; for inhibition at 10 µM: given where EC50 >10 μM, read-out: percent inhibition at 10 μM; for EC50: CellTiter-Blue. The gist of the method:
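SW480 colon cancer cells (~2×10^3/well) exposed to 8-point 1:3 dilutions from 10 μM to 0.0045 μM for four days at 37 °C/5% CO2. Viability read by resazurin (CellTiter-Blue) fluorescence after ~3 h, Ex 560/Em 590 nm. EC50 from non-linear regression; percent inhibition at 10 μM given when EC50 >10 μM.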
(In general: The colour change of resazurin is a common sign of viable cells or microbes.)

In experiment [1] the test system is Primary human fibroblasts derived from IPF patients (LL29 cells) treated with TGF-β1. In words: Inhibition of the fibrotic process: αSMA staining in TGF-β1-treated primary human fibroblasts from IPF patients (LL29 cells). Particulars: Fibroblast, 96 h; for EC50: % αSMA-positive LL29 cells, TGF-β1 20 ng/mL, 4 days; for inhibition at 10 µM: given where EC50 >10 μM, αSMA, LL29 cells, TGF-β1, 4 days, read-out: percent inhibition at 10 μM. The gist of the method:
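LL29 IPF-patient fibroblasts in 1% FBS stimulated with TGF-β1 (20 ng/mL) and compound (10 μM–1.87 nM, 0.1% DMSO) for 4 days at 37 °C. SYTOX-positive cells excluded; % αSMA-positive cells imaged, normalized to TGF-β1/DMSO wells; EC50 by nonlinear regression, else % inhibition at 10 μM.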

The test system of a further experiment is IL-6. The experiment is described as follows: Inhibition of IL-6 in LPS-stimulated THP-1 human monocyte cells (HTRF). Particulars: for EC50: IL-6 inhibition, LPS-stimulated THP-1 cells, HTRF; for inhibition at 10 µM: THP-1, printed beside >10 μM EC50, top concentration 10 μM, meaning not given, read-out: percentage in parentheses after EC50 >10. The gist of the method: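 THP-1 cells serum-reduced (1% FBS, 24 h), then 5000 cells/well preincubated 2 h with compound (10-point 1:3 series from 10 μM, 0.1% DMSO) before 500 ng/mL LPS for 22 h at 37 °C. Secreted IL-6 quantified by HTRF 665/620 ratio; DMSO-normalised duplicates fitted to four-parameter EC50; above 10 μM, % inhibition at 10 μM given.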

A value given as a limit tells only on which side of the number the result lay.

One may read the EC50 as the concentration at which the effect is half-maximal. High values mean lower potency in that assay, low ones higher potency in that assay. For the compound `c1cc(-c2ccncc2)c2cc(-c3n[nH]c4ccc(-c5ccncc5)cc34)[nH]c2c1` [Compound 130, 5-(Pyridin-4-yl)-3-(4-(pyridin-4-yl)-1H-indol-2-yl)-1H-indazole], the inhibition at 10 µM worked out at 23.2% with SW480 colon cancer cells and 48.8% in the experiment with IL-6. Further, the EC50 in the experiment on SW480 colon cancer cells was more than 10000 nM; in experiment [1], 1650 nM; with IL-6 it was more than 10000 nM.

As for `CCNCc1cncc(-c2ccc3[nH]nc(-c4cc5ccccc5[nH]4)c3c2)c1` [Compound 258, N-((5-(3-(1H-Indol-2-yl)-1H-indazol-5-yl)pyridin-3-yl)methyl)ethanamine], the EC50 was 489 nM with SW480 colon cancer cells, 235 nM in experiment [1] and 161 nM with IL-6.

As for `CC(C)CC(=O)Nc1cncc(-c2ccc3[nH]nc(-c4cc5c(-c6ccc(F)cc6)cccc5[nH]4)c3c2)c1` [Compound 30, N-(5-(3-(4-(4-Fluorophenyl)-1H-indol-2-yl)-1H-indazol-5-yl)pyridin-3-yl)-3-methylbutanamide], the inhibition at 10 µM in the experiment with SW480 colon cancer cells is 38.2%; in the experiment on IL-6, 27.9%. In addition, the values for the EC50 (in the experiment with SW480 colon cancer cells; in experiment [1]; with IL-6) were more than 10000 nM, 2520 nM and more than 10000 nM, respectively.

For the compound `c1ccc2[nH]c(-c3n[nH]c4ccc(-c5cncc(CN6CCCCC6)c5)cc34)cc2c1` [Compound 267, 3-(1H-Indol-2-yl)-5-(5-(piperidin-1-ylmethyl)pyridin-3-yl)-1H-indazole], the inhibition at 10 µM in the experiment with SW480 colon cancer cells is 7.8%; in experiment [1], 49.9%. Besides, the EC50 was more than 10000 nM in the experiment with SW480 colon cancer cells, more than 10000 nM in experiment [1] and 1730 nM with IL-6.

Turning to `CN1CCN(c2cccc3[nH]c(-c4n[nH]c5ccc(-c6cncc(NC(=O)CC7CCNCC7)c6)cc45)cc23)CC1` [Compound 669, N-(5-(3-(4-(4-Methylpiperazin-1-yl)-1H-indol-2-yl)-1H-indazol-5-yl)pyridin-3-yl)-2-(piperidin-4-yl)acetamide], the inhibition at 10 µM with SW480 colon cancer cells came to 12.2%; in experiment [1] it was 17.7%; with IL-6, 25.3%. Also, the EC50 (in the experiment on SW480 colon cancer cells; in experiment [1]; in the experiment on IL-6) was more than 10000 nM in each case.

Take `CC(C)CC(=O)Nc1cncc(-c2ccc3[nH]nc(-c4cc5ncccc5[nH]4)c3c2)c1` [Compound 506, N-(5-(3-(1H-Pyrrolo[3,2-b]pyridin-2-yl)-1H-indazol-5-yl)pyridin-3-yl)-3-methylbutanamide]: the concentration for a half-maximal effect (EC50) in the experiment on SW480 colon cancer cells was 486 nM; in experiment [1], more than 10000 nM; with IL-6, 102 nM. The inhibition at 10 µM in experiment [1] came out at 24.2%.

`CN(C)Cc1cncc(-c2ccc3[nH]nc(-c4cc5c(-c6ccc(F)cc6)cccc5[nH]4)c3c2)c1` [Compound 41, 1-(5-(3-(4-(4-Fluorophenyl)-1H-indol-2-yl)-1H-indazol-5-yl)pyridin-3-yl)-N,N-dimethylmethanamine]: the inhibition at 10 µM was determined as 10% in the experiment on SW480 colon cancer cells and 22.9% in the experiment with IL-6. Also, the EC50 with SW480 colon cancer cells was more than 10000 nM; in experiment [1], 5760 nM; with IL-6, more than 10000 nM.

As to `CCCC(=O)Nc1cncc(-c2ccc3[nH]nc(-c4cc5c(-c6ccncc6)cccc5[nH]4)c3c2)c1` [Compound 129, N-(5-(3-(4-(Pyridin-4-yl)-1H-indol-2-yl)-1H-indazol-5-yl)pyridin-3-yl) butyramide], the EC50 in the experiment with SW480 colon cancer cells is 9530 nM; in experiment [1], 2870 nM; with IL-6, more than 10000 nM. The inhibition at 10 µM in the experiment with IL-6 is 33.4%.

Turning to `c1cncc(-c2ccc3[nH]nc(-c4cc5ccccc5[nH]4)c3c2)c1` [Compound 256, 3-(1H-Indol-2-yl)-5-(pyridin-3-yl)-1H-indazole], in the experiment on SW480 colon cancer cells, the inhibition at 10 µM came out at 4.7%. In addition, the figures for the concentration for a half-maximal effect (EC50) (with SW480 colon cancer cells; in experiment [1]; in the experiment on IL-6) were more than 10000 nM, 9770 nM and 10 nM, respectively.

For `O=C(Nc1cncc(-c2ccc3[nH]nc(-c4cc5ccccc5[nH]4)c3c2)c1)c1ccccc1` [Compound 263, N-(5-(3-(1H-Indol-2-yl)-1H-indazol-5-yl)pyridin-3-yl)benzamide], the inhibition at 10 µM stood at 2.9% in the experiment with SW480 colon cancer cells and 0% in the experiment on IL-6. Moreover, the 50% effective concentration (EC50) with SW480 colon cancer cells is more than 10000 nM; in experiment [1] it was 1570 nM; with IL-6 it was more than 10000 nM.

On to `CC(C)CC(=O)Nc1cncc(-c2ccc3[nH]nc(-c4cc5c(-c6ccsc6)cccc5[nH]4)c3c2)c1` [Compound 282, 3-Methyl-N-(5-(3-(4-(thiophen-3-yl)-1H-indol-2-yl)-1H-indazol-5-yl)pyridin-3-yl)butanamide], for which the figures for the EC50 (in the experiment with SW480 colon cancer cells; in experiment [1]; with IL-6) were 180 nM, more than 10000 nM and 977 nM, respectively. In addition, the inhibition at 10 µM in experiment [1] was found to be 34.9%.

Take `CC(C)(C)CC(=O)Nc1cncc(-c2ccc3[nH]nc(-c4cc5c(-c6ccccc6F)cccc5[nH]4)c3c2)c1` [Compound 72, N-(5-(3-(4-(2-Fluorophenyl)-1H-indol-2-yl)-1H-indazol-5-yl)pyridin-3-yl)-3,3-dimethylbutanamide]: the figures for the inhibition at 10 µM (with SW480 colon cancer cells; in experiment [1]; in the experiment on IL-6) were 16.2%, 0% and 35.3%, respectively. Also, the 50% effective concentration (EC50) (in the experiment with SW480 colon cancer cells; in experiment [1]; with IL-6) was more than 10000 nM each time.

Take `CCCC(=O)Nc1cncc(-c2ccc3[nH]nc(-c4cc5c(-c6cccc(F)c6)cccc5[nH]4)c3c2)c1` [Compound 17, N-(5-(3-(4-(3-Fluorophenyl)-1H-indol-2-yl)-1H-indazol-5-yl)pyridin-3-yl) butyramide]: the inhibition at 10 µM with SW480 colon cancer cells is 12.9%; in experiment [1], 0%; with IL-6 it was 24.7%. Further, the concentration giving a half-maximal response (EC50) (in the experiment with SW480 colon cancer cells; in experiment [1]; with IL-6) was more than 10000 nM each time.

As for `c1cncc(-c2ccc3[nH]nc(-c4cc5c(-c6cccnc6)cccc5[nH]4)c3c2)c1` [Compound 88, 5-(Pyridin-3-yl)-3-(4-(pyridin-3-yl)-1H-indol-2-yl)-1H-indazole], the inhibition at 10 µM in the experiment with SW480 colon cancer cells turned out to be 21.9%; in experiment [1], 17.3%. Also, the EC50 with SW480 colon cancer cells is more than 10000 nM; in experiment [1] it was more than 10000 nM; in the experiment with IL-6 it was 23 nM.

Turning to `Fc1ccc(-c2cccc3[nH]c(-c4n[nH]c5ccc(-c6cncc(CN7CCCC7)c6)cc45)cc23)cc1` [Compound 42, 3-(4-(4-Fluorophenyl)-1H-indol-2-yl)-5-(5-(pyrrolidin-1-ylmethyl)pyridin-3-yl)-1H-indazole], the inhibition at 10 µM is 42.4% in the experiment with SW480 colon cancer cells and 47.8% in the experiment on IL-6. The EC50 is more than 10000 nM in the experiment with SW480 colon cancer cells, 2090 nM in experiment [1] and more than 10000 nM with IL-6.

For the compound `CN(C)Cc1cncc(-c2ccc3[nH]nc(-c4cc5c(-c6cccc(F)c6)cccc5[nH]4)c3c2)c1` [Compound 13, 1-(5-(3-(4-(3-Fluorophenyl)-1H-indol-2-yl)-1H-indazol-5-yl)pyridin-3-yl)-N,N-dimethylmethanamine], the EC50 in the experiment on SW480 colon cancer cells was found to be 494 nM; in experiment [1], 302 nM; in the experiment on IL-6 it was 36 nM.

Turning to `CN1CCN(c2cccc3[nH]c(-c4n[nH]c5ccc(-c6cncc(N)c6)cc45)cc23)CC1` [Compound 227, 5-(3-(4-(4-Methylpiperazin-1-yl)-1H-indol-2-yl)-1H-indazol-5-yl)pyridin-3-amine], the EC50 in the experiment on SW480 colon cancer cells was determined as 2960 nM; in experiment [1], 4000 nM; in the experiment on IL-6, 1810 nM.

With `O=C(Nc1cncc(-c2ccc3[nH]nc(-c4cc5ccccc5[nH]4)c3c2)c1)C1CCCCC1` [Compound 275, N-(5-(3-(1H-Indol-2-yl)-1H-indazol-5-yl)pyridin-3-yl) cyclohexanecarboxamide], the inhibition at 10 µM with SW480 colon cancer cells worked out at 9.5%; in experiment [1], 43.7%; in the experiment on IL-6 it was 32.5%. Besides, the EC50 (in the experiment on SW480 colon cancer cells; in experiment [1]; in the experiment on IL-6) was more than 10000 nM each time.

As to `Nc1cncc(-c2ccc3[nH]nc(-c4cc5c(-c6ccccc6F)cccc5[nH]4)c3c2)c1` [Compound 59, 5-(3-(4-(2-Fluorophenyl)-1H-indol-2-yl)-1H-indazol-5-yl)pyridin-3-amine], the EC50 in the experiment on SW480 colon cancer cells was 1290 nM; in experiment [1], 603 nM; with IL-6, 3460 nM.

In the case of `O=C(Nc1cncc(-c2ccc3[nH]nc(-c4cc5c(-c6ccccn6)cccc5[nH]4)c3c2)c1)c1ccccc1` [Compound 151, N-(5-(3-(4-(Pyridin-2-yl)-1H-indol-2-yl)-1H-indazol-5-yl)pyridin-3-yl) benzamide], the inhibition at 10 µM was determined as 17.7% in the experiment with SW480 colon cancer cells, 0% in experiment [1] and 46.9% in the experiment on IL-6. The EC50 (in the experiment on SW480 colon cancer cells; in experiment [1]; in the experiment on IL-6) was more than 10000 nM each time.

As to `c1cncc(-c2ccc3[nH]nc(-c4cc5c(-c6cccs6)cccc5[nH]4)c3c2)c1` [Compound 340, 5-(Pyridin-3-yl)-3-(4-(thiophen-2-yl)-1H-indol-2-yl)-1H-indazole], the results for the EC50 (in the experiment on SW480 colon cancer cells; in experiment [1]; in the experiment with IL-6) were 371 nM, more than 10000 nM and 18 nM, respectively. The inhibition at 10 µM in experiment [1] is 38.3%.
